Here are results for 2 compounds from article PMC12454639, “Direct disassembly of α-syn preformed fibrils into α-syn monomers by an all-D-peptide” (NPJ Parkinson's Disease, 2025).

Data set [1] relates to recombinant full-length α-syn. Description: De novo ThT aggregation screening assay (50 µM α-syn). It is filed as biochemical. The method, then:
The Thioflavin T (ThT) assay is commonly used for the visualization of α-syn fibrilization, since the dye ThT is able to bind to the amyloidogenic cross-β-sheet proportions of fibril structures. Recombinant α-syn was thawed on ice and centrifuged for 30 min at 21,000 × g and 4 °C. The concentration of the supernatant was determined as described previously. Lyophilized D-peptides were thawed at RT for 1 h and dissolved in 500 µl PBS pH 7.4. After centrifugation for 30 min at 21,000 × g the supernatant concentration was determined by UV–vis using the corresponding extinction coefficient at A280. All ThT assay experiments were performed at 37 °C with 15 µM ThT and 0.05% sodium azide (w/v) in PBS pH 7.4 if not otherwise stated. ThT fluorescence was monitored with bottom optics at λex = 448 nm and λem = 482 nm in a fluorescence plate reader with orbital averaging on 3 mm (Clariostar or Polarstar Optima, BMG labtech, GE). […]
ThT assay was used for different purposes. […] Lag-time and t½ were calculated as described previously. […]
Monomeric α-syn (Supplementary Fig. 3) was incubated with or without a 3-fold molar excess of the D-peptides. […] The ThT positive aggregation was fitted with a symmetric Boltzmann fit and t ½- and lag-time were calculated accordingly. […] ThT fluorescence progression was measured in a 96-well non-binding half-area with a FLUOStar plate reader at λex = 448 nm and λem = 482 nm. […]

A short description of data set [2]: CD spectroscopy of SVD-1a alone. The class given is physicochemical. The conditions noted are these: 30 µM, PBS pH 7.4, 37 °C. The method, then: Far-UV circular dichroism (CD) data were collected using a Jasco J-1100 spectropolarimeter (Jasco, GE). 350 µl samples were pooled and loaded into a high precision quartz cuvette with a path length of 1 mm (Hellma group, GE). A scan speed of 20 nm/min with five accumulations per sample was performed using far UV wavelengths from 260 to 190 nm. Baseline was corrected by subtracting measurements of the reference sample only.
Supplementary Fig. 13: Analysis of the seeded aggregation assay in the presence and absence of SVD-1a using circular dichroism (CD) spectroscopy. Small α-syn PFF (500 nM) were incubated in PBS (pH 7.4) at 37 °C under quiescent conditions for 24 hours, either alone or in the presence of 15 µM α-synuclein monomer and/or 30 µM SVD-1a. For each condition and time point, three replicates (each 120 µl) were pooled and analyzed by CD spectroscopy at 0, 2, 8, and 24 hours. Far-UV ellipticity was measured in a quartz cuvette (path length = 10 mm) using a J-1100 CD spectrometer (Jasco, GE). […] (D) Co-incubation of 500 nM α-synuclein PFFs with 15 µM α-synuclein monomer induced a structural transition towards β-sheet formation, as reflected in the CD spectrum (referenced to spectrum in (A)).

For data set [3], the system named is α-synA53T–YFP cells (HEK293T).

Square brackets hold non-standard residues; d marks the D form. Peptide text beside a SMILES is read from it.

Turning to `CC[C@@H](C)[C@@H](NC(=O)[C@@H](Cc1c[nH]cn1)NC(=O)[C@@H](CCC(=O)O)NC(=O)[C@@H](CCC(N)=O)NC(=O)[C@@H](Cc1c[nH]c2ccccc12)NC(=O)[C@@H](Cc1ccc(O)cc1)NC(=O)[C@H](NC(=O)[C@@H](CCC(=O)O)NC(=O)[C@@H](Cc1c[nH]cn1)NC(=O)[C@H](NC(=O)[C@H]1CCCN1C(=O)[C@@H](CCSC)NC(=O)[C@H](N)CCCCN)[C@H](C)O)[C@H](C)O)C(=O)N[C@H](Cc1c[nH]c2ccccc12)C(=O)N[C@H](Cc1c[nH]cn1)C(=O)N[C@H](C)C(N)=O` [SVD-1] (H-[dK][dM][dP][dT][dH][dE][dT][dY][dW][dQ][dE][dH][dI][dW][dH][dA]-NH2), the “effect on α-syn aggregation, concentration dependency” value in data set [1] (50 µM α-syn with 50, 150 or 250 µM D-peptide, PBS pH 7.4, n = 5) is “most efficient”. Moreover, in data set [1] (50 µM α-syn, 3-fold molar excess peptide, PBS pH 7.4, 37 °C, shaking 300 rpm 30 s per cycle, n = 3), the “effect on α-syn aggregation (t½ and lag-time)” value is reported as “delayed α-syn aggregation”.
For the compound `CC[C@@H](C)[C@@H](NC(=O)[C@@H](Cc1c[nH]cn1)NC(=O)[C@@H](CCC(=O)O)NC(=O)[C@@H](CCC(N)=O)NC(=O)[C@@H](Cc1c[nH]c2ccccc12)NC(=O)[C@@H](Cc1ccc(O)cc1)NC(=O)[C@H](NC(=O)[C@@H](CCC(=O)O)NC(=O)[C@@H](Cc1c[nH]cn1)NC(=O)[C@H](NC(=O)[C@H]1CCCN1C(=O)[C@@H](CC(C)C)NC(=O)[C@H](N)CCCNC(=N)N)[C@H](C)O)[C@H](C)O)C(=O)N[C@H](Cc1c[nH]c2ccccc12)C(=O)N[C@H](Cc1c[nH]cn1)C(=O)N[C@H](C)C(=O)N[C@H](CCCNC(=N)N)C(=O)N[C@H](CCCNC(=N)N)C(=O)N[C@H](CCCNC(=N)N)C(=O)N[C@H](CCCNC(=N)N)C(=O)N[C@H](CCCNC(=N)N)C(N)=O` [SVD-1a] (H-[dR][dL][dP][dT][dH][dE][dT][dY][dW][dQ][dE][dH][dI][dW][dH][dA][dR][dR][dR][dR][dR]-NH2), in data set [2], the “secondary structure of peptide alone (CD)” value is listed as “random coil secondary structure”. Besides, the “cell viability, PFF-seeded α-synA53T–YFP cells” value in data set [3] is reported as “did not induce significantly different luminescence in comparison to unseeded cells or seeded cells without peptide treatment”.
